Test results reported in patent publication US20240415819A1, “MACROCYCLIC COMPOUNDS AS PROTEASOME SUBUNIT BETA TYPE-5 INHIBITORS” (Lead Discovery Center GmbH, priority 2021, published 2024).

Tests used:
[1] = target: T1, β5 subunit of the human constitutive proteasome (CPS) (Homo sapiens, UniProt P28074); experiment: β5 inhibition assay, human constitutive proteasome (Suc-LLVY-AMC); type: biochemical; settings: IC50 class, Suc-LLVY-AMC substrate
T1 construct: purchased Boston Biochem E-360
Experimental: The enzymatic activity of the β5 subunit of the human constitutive proteasome (CPS) is analyzed. In another assay, which differs from the assay of the human constitutive proteasome only in using the human immunoproteasome (IPS) the enzymatic activity of the β5 subunit of the human immunoproteasome (IPS) is analyzed. […] Inhibition is indicated as IC50 [nM] (“-”=not measured).

[2] = test system: HT-29 cells; experiment: CellTiter-Glo luminescent cell viability assay with HT-29 cells (72h incubation); type: cell-based, human; settings: Homo sapiens, HT-29, HT29 cells, read-out: CTG HT29
Summary of the method: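 Viability read as CellTiter-Glo luminescence after 72 h compound exposure, with 10 μM staurosporine and DMSO as control wells. Seeding 400 cells per well, compound added 24 h post-plating; IC50 from curve fitting.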

[3] = test system: hPMBC; experiment: Chymotrypsin-like ProteasomeGlo assay in hPBMC; type: cell-based; settings: Homo sapiens; read-out: Pglo hPBMC
Summary of the method: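 IC50 derived from luminescent chymotrypsin-like proteasome activity (Suc-LLVY-Glo substrate plus luciferin detection reagent). Measured after 105 min compound exposure at 37 °C, 5% CO2. Cells were human B cells purified from buffy-coat PBMC.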

IC50 [1] [µM]	IC50 [2] [µM]	IC50 [3] [µM]	SMILES
< 0.1	< 0.1	0.1 to 0.5	Cc1ccc2cc1CNC(=O)[C@H](CCc1ccccc1)NC(=O)[C@@H](NC(=O)OCc1ccccc1)CCCC(=O)N1CCC(CCO2)C1 (stereo partly drawn) [Compound 352, benzyl ((9S, 12S)-5^4-methyl-8,11,16-trioxo-9-phenethyl-4-oxa-7,10-diaza-1(3,1)-pyrrolidina-5(1,3)-benzenacyclohexadecaphane-12-yl)carbamate]
< 0.1	< 0.1	< 0.1	Cc1ccc2cc1CNC(=O)C(c1cnn(C)c1)NC(=O)[C@@H](NC(=O)C1CCCc3ccccc31)CC(=O)N1CCCC(CCO2)C1 (stereo partly drawn) [Compound 360, N-((12S)-5^4-methyl-9-(1-methyl-1H-pyrazol-4-yl)-8,11,14-trioxo-4-oxa-7,10-diaza-1(3,1)-piperidina-5(1,3)-benzenacyclotetradecaphane-12-yl)-1,2,3,4-tetrahydronaphthalene-1-carboxamide]
< 0.1	0.1 to 0.5	0.1 to 0.5	CC(=O)N[C@H]1CC(=O)N2CCCC(CCOc3ccc(C)c(c3)CNC(=O)C(c3cnn(CCOCCOCCOCCN)c3)NC1=O)C2 (stereo partly drawn) [Compound 566, N-((12S)-9-(1-(2-(2-(2-(2-aminoethoxy)ethoxy)ethoxy)ethyl)-1H-pyrazol-4-yl)-5^4-methyl-8,11,14-trioxo-4-oxa-7,10-diaza-1(3,1)-piperidina-5(1,3)-benzenacyclotetradecaphane-12-yl)acetamide]
< 0.1	< 0.1	< 0.1	Cc1ccc2cc1CNC(=O)C(CCc1ccncc1)NC(=O)[C@@H](NC(=O)Cc1nnc(N)s1)CC(=O)N1CCCC(CCO2)C1 (stereo partly drawn) [Compound 342, 2-(5-amino-1,3,4-thiadiazol-2-yl)-N-((12S)-5^4-methyl-8,11,14-trioxo-9-(2-(pyridin-4-yl)ethyl)-4-oxa-7,10-diaza-1(3,1)-piperidina-5(1,3)-benzenacyclotetradecaphane-12-yl)acetamide]
< 0.1	< 0.1	< 0.1	Cc1ccc2cc1CNC(=O)[C@H](CCc1ccccc1)NC(=O)[C@@H](NC(=O)C(C)c1ccc(N)cc1)CC(=O)N1CCCC(CCO2)C1 (stereo partly drawn) [Compound 309, 2-(4-aminophenyl)-N-((9S,12S)-5^4-methyl-8,11,14-trioxo-9-phenethyl-4-oxa-7,10-diaza-1(3,1)-piperidina-5(1,3)-benzenacyclotetradecaphane-12-yl)propanamide]
< 0.1	< 0.1	< 0.1	Cc1ccc2cc1CNC(=O)C(CCc1ccncc1)NC(=O)[C@@H](NC(=O)OCc1ccccc1)CC(=O)N1CCCC(CCO2)C1 (stereo partly drawn) [Compound 336, benzyl ((12S)-5^4-methyl-8,11,14-trioxo-9-(2-(pyridin-4-yl)ethyl)-4-oxa-7,10-diaza-1(3,1)-piperidina-5(1,3)-benzenacyclotetradecaphane-12-yl)carbamate]
< 0.1	< 0.1	< 0.1	CC(=O)N[C@H]1CC(=O)N2CCCC(CCOc3ccc(C)c(c3)CNC(=O)C(Cn3c(=O)oc4ccccc43)NC1=O)C2 (stereo partly drawn) [Compound 555, N-((12S)-5^4-methyl-8,11,14-trioxo-9-((2-oxobenzo[d]oxazol-3(2H)-yl)methyl)-4-oxa-7,10-diaza-1(3,1)-piperidina-5(1,3)-benzenacyclotetradecaphane-12-yl)acetamide]
< 0.1	0.1 to 0.5	< 0.1	Cc1ccc2cc1CNC(=O)[C@H](CCc1ccccc1)NC(=O)[C@@H](NC(=O)Cc1nnc(N)[nH]1)CC(=O)N1CCCC(CCO2)C1 (stereo partly drawn) [Compound 340, 2-(5-amino-1H-1,2,4-triazol-3-yl)-N-((9S,12S)-5^4-methyl-8,11,14-trioxo-9-phenethyl-4-oxa-7,10-diaza-1(3,1)-piperidina-5(1,3)-benzenacyclotetradecaphane-12-yl)acetamide]
< 0.1	< 0.1	< 0.1	Cc1ccc2cc1CNC(=O)[C@H](CCc1ccccc1)NC(=O)[C@@H](NC(=O)Cc1nnc(N)s1)CC(=O)N1CCCC(CCO2)C1 (stereo partly drawn) [Compound 310, 2-(5-amino-1,3,4-thiadiazol-2-yl)-N-((9S,12S)-54-methyl-8,11,14-trioxo-9-phenethyl-4-oxa-7,10-diaza-1(3,1)-piperidina-5(1,3)-benzenacyclotetradecaphane-12-yl)acetamide]
1 to 5	0.1 to 0.5	1 to 5	Cc1ccc2cc1CNC(=O)[C@H](CCc1ccccc1)NC(=O)[C@@H](NC(=O)OCc1ccccc1)CCC(=O)N1CCCC3(CC(C3)O2)C1 [Compound 301, benzyl ((7S,10S)-3^4-methyl-6,9,13-trioxo-7-phenethyl-2-oxa-5,8-diaza-14(3,1)-piperidina-3(1,3)-benzena-1(1,3)-cyclobutanatetradecaphane-10-yl)carbamate]
< 0.1	< 0.1	< 0.1	COC(=O)N(CC1NC(=O)[C@@H](NC(=O)OCc2ccccc2)CC(=O)N2CCCC(CCOc3ccc(C)c(c3)CNC1=O)C2)c1ccccc1 (stereo partly drawn) [Compound 513, methyl (((12R)-12-(((benzyloxy)carbonyl)amino)-5^4-methyl-8,11,14-trioxo-4-oxa-7,10-diaza-1(3,1)-piperidina-5(1,3)-benzenacyclotetradecaphane-9-yl)methyl)(phenyl)carbamate]
< 0.1	< 0.1	0.1 to 0.5	Cc1ccc2cc1CNC(=O)[C@H](CCc1ccccc1)NC(=O)[C@@H](NC(=O)CC1=NN(c3ccccc3)C(=O)C1)CC(=O)N1CCCC(CCO2)C1 (stereo partly drawn) [Compound 334, N-((9S,12S)-5^4-methyl-8,11,14-trioxo-9-phenethyl-4-oxa-7,10-diaza-1(3,1)-piperidina-5(1,3)-benzenacyclotetradecaphane-12-yl)-2-(5-oxo-1-phenyl-4,5-dihydro-1H-pyrazol-3-yl)acetamide]
< 0.1	< 0.1	< 0.1	Cc1ccc2cc1CNC(=O)[C@H](CCc1ccccc1)NC(=O)[C@@H](NC(=O)OCc1ccccc1)CC(=O)N1CC(C)CC(CCO2)C1 (stereo partly drawn) [Compound 337, benzyl ((9S,12S)-1^5,5^4-dimethyl-8,11,14-trioxo-9-phenethyl-4-oxa-7,10-diaza-1(3,1)-piperidina-5(1,3)-benzenacyclotetradecaphane-12-yl)carbamate]
1 to 5	1 to 5	< 0.1	Cc1cc2cc(c1C)CNC(=O)C(c1cnn(C)c1)NC(=O)CCC(=O)N1CCCC(CCO2)C1 (stereo not drawn) [Compound 355, 5^4,5^5-dimethyl-9-(1-methyl-1H-pyrazol-4-yl)-4-oxa-7,10-diaza-1(3,1)-piperidina-5(1,3)-benzenacyclotetradecaphane-8,11,14-trione]
< 0.1	< 0.1	< 0.1	Cc1ccc2cc1CNC(=O)C(CCc1cnccn1)NC(=O)[C@@H](NC(=O)C1(c3ccc(N)cc3)CC1)CC(=O)N1CCCC(CCO2)C1 (stereo partly drawn) [Compound 371, 1-(4-aminophenyl)-N-((9S,12S)-5^4-methyl-8,11,14-trioxo-9-(2-(pyrazin-2-yl)ethyl)-4-oxa-7,10-diaza-1(3,1)-piperidina-5(1,3)-benzenacyclotetradecaphane-12-yl)cyclopropane-1-carboxamide]
< 0.1	< 0.1	0.1 to 0.5	CC(=O)N[C@H]1CCCC(=O)N(C)CCCCOc2ccc(C)c(c2)CNC(=O)[C@H](CCc2ccccc2)NC1=O [Compound 295, N-(1^4,7-dimethyl-8,13,16-trioxo-15-phenethyl-2-oxa-7,14,17-triaza-1(1,3)-benzenacyclooctadecaphane-12-yl)acetamide]
< 0.1	< 0.1	< 0.1	CC(=O)N[C@H]1CC(=O)N2CCCC(CCOc3ccc(C)c(c3)CNC(=O)C(c3coc(C)n3)NC1=O)C2 (stereo partly drawn) [Compound 553, N-((12S)-5^4-methyl-9-(2-methyloxazol-4-yl)-8,11,14-trioxo-4-oxa-7,10-diaza-1(3,1)-piperidina-5(1,3)-benzenacyclotetradecaphane-12-yl)acetamide]
< 0.1	< 0.1	< 0.1	CC(=O)N[C@H]1CC(=O)N2CCCC(CCOc3ccc(C)c(c3)CNC(=O)C(c3cnn(-c4ccccc4)c3)NC1=O)C2 (stereo partly drawn) [Compound 559, N-((12S)-5^4-methyl-8,11,14-trioxo-9-(1-phenyl-1H-pyrazol-4-yl)-4-oxa-7,10-diaza-1(3,1)-piperidina-5(1,3)-benzenacyclotetradecaphane-12-yl)acetamide]
0.5 to 1	0.5 to 1	< 0.1	Cc1ccc2cc1CNC(=O)C(c1cnn(C)c1)NC(=O)CCCCC(=O)N1CCCC(CCO2)C1 (stereo not drawn) [Compound 356, 5^4-methyl-9-(1-methyl-1H-pyrazol-4-yl)-4-oxa-7,10-diaza-1(3,1)-piperidina-5(1,3)-benzenacyclohexadecaphane-8,11,16-trione]
0.1 to 0.5	0.1 to 0.5	< 0.1	Cc1ccc2cc1CNC(=O)C(c1cnn(C)c1)NC(=O)[C@@H](NC(=O)CN1CCCC1)CC(=O)N1CCCC(CCO2)C1 (stereo partly drawn) [Compound 358, N-((12S)-5^4-methyl-9-(1-methyl-1H-pyrazol-4-yl)-8,11,14-trioxo-4-oxa-7,10-diaza-1(3,1)-piperidina-5(1,3)-benzenacyclotetradecaphane-12-yl)-2-(pyrrolidin-1-yl)acetamide]
